Laboratory results as given in patent publication US20060160174A1, “Modified l49-sfv exhibiting increased stability and methods of use thereof” (priority 2002, published 2006).

Tested on: H3677 melanoma cells
Test: in vitro cytotoxicity assay with prodrug C-Mel (alamarBlue)
Type: cell-based
Settings: Homo sapiens
Description: H3677 cells were plated into 96 well microtiter plates (5×10^3 cells/well in 100 μl of RPMI 1640 media (Invitrogen) with 10% fetal bovine serum) and allowed to adhere overnight. The cells were treated with FP95, FP990 or FP999 fusion (see Table 2) proteins at 10 nM. […] Melphalan was also added at the same concentrations to cells treated with medium alone. After 1 hour at 37° C. cells were washed three times with medium and incubated for 96 hours at 37° C. The cells were then incubated with 10% alamarBlue™ for 3 hours at 37° C. and excitation was measured in an ELISA plate reader at 570 nm.
The cells were treated with 10 nM L49-sFv-bL, unbound material was washed off and serial dilutions of C-Mel were added. C-Mel and the active drug, melphalan, were also applied to cells treated with media alone. Cell viability was measured using the redox indicator alamarBlue™.

**Q.** How did the IC50 turn out when `N[C@@H](Cc1ccc(N(CCCl)CCCl)cc1)C(=O)O` [melphalan] was run?
**A.** ~5 µM
